# Like-named read-outs stand apart in the source and are kept apart here.
# Columns and labels:
# [1] = system: SUDHL10; test: Anti-proliferative effect (CellTiter-Glo, 72 h), SUDHL10; format: cell-based; details: SUDHL10 cells, antiproliferation, 72 h incubation, median, read-out: Antiproli SUDHL10 [M] (median)
# How it was run: (§1)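 CTG luminescence read-out after 72 h compound exposure, 37 °C, humidified. Time-zero reference plate read at plating.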
# [2] = system: SUDHL10; test: Induction of cytotoxicity (CellTiter-Glo, 5 h), SUDHL10
# [3] = system: SUDHL5; test: Induction of caspase-3/7 activity (Caspase-Glo 3/7), SUDHL5; format: cell-based; details: caspase-3/7 induction, SUDHL5 cells, 3 h treatment, median
# How it was run: (§2)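 Caspase-Glo 3/7 luminescence, 3 h compound exposure, 37 °C, humidified. Minus medium-only blank. EC50 fit: C0=1, plateau = reference max induction.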
# [4] = molecular target: MCL-1 (Homo sapiens, UniProt Q07820); test: Protein-protein interaction assay MCL-1/Noxa BH3 peptide (MCL-1 assay), TR-FRET; format: binding; details: MBP-MCL-1 / Noxa BH3-derived peptide, median
# Chain of MCL-1 (Q07820 whole entry): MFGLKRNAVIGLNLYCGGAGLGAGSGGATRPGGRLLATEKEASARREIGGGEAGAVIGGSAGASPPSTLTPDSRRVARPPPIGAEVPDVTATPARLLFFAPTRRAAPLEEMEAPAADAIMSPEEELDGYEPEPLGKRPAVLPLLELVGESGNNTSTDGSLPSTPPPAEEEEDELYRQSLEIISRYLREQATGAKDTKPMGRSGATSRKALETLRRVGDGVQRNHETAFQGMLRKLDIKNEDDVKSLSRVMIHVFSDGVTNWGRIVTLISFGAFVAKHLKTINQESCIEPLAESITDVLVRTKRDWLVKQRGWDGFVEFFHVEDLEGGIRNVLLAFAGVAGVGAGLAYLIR
# How it was run: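 Displacement of the biotinylated Noxa BH3 peptide from MBP-tagged human MCL-1 (1 nM) is detected by time-resolved FRET. Compounds are tested in duplicate across eleven concentrations up to 20 μM, incubated 1 h at 22 °C and overnight at 4 °C, and IC50 is fitted with a four-parameter equation.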
# [5] = system: SUDHL5; test: Anti-proliferative effect (CellTiter-Glo, 72 h), SUDHL5; format: cell-based; details: SUDHL5 cells, antiproliferation, 72 h incubation, median, read-out: Antiproli SUDHL5 [M] (median)
# How it was run: as §1
# [6] = system: SUDHL5; test: Induction of cytotoxicity (CellTiter-Glo, 5 h), SUDHL5
# [7] = system: OPM2; test: Anti-proliferative effect (CellTiter-Glo, 72 h), OPM2; format: cell-based; details: OPM2 cells, median, read-out: IC50 antiproliferation assay OPM2 [M] (median)
# How it was run: as §1
# [8] = system: SUDHL10; test: Induction of caspase-3/7 activity (Caspase-Glo 3/7), SUDHL10; format: cell-based; details: caspase-3/7 induction, SUDHL10 cells, 3 h treatment, median
# How it was run: as §2
# [9] = Homo sapiens, SU-DHL10, 5 h, read-out: Cytotox SUDHL10 [M] (median), SUDHL10 cells, cytotoxicity induction, CellTiter-Glo, 5 h incubation, median
# [10] = Homo sapiens, SU-DHL-5, 5 h, read-out: Cytotox SUDHL5 [M] (median), SUDHL5 cells, cytotoxicity induction, CellTiter-Glo, 5 h incubation, median
# [11] = read-out: Cytotox SUDHL10 [M] (median), SUDHL10 cells, cytotoxicity induction, CellTiter-Glo, 5 h incubation, median
# [12] = read-out: Cytotox SUDHL5 [M] (median), SUDHL5 cells, cytotoxicity induction, CellTiter-Glo, 5 h incubation, median
Structure (SMILES),"IC50 ([1]; Homo sapiens, SU-DHL10, 72 h) [M]","IC50 [2, 9] [M]","EC50 ([3]; Homo sapiens, SU-DHL-5, 3 h) [µM]",IC50 [4] [µM],"IC50 ([5]; Homo sapiens, SU-DHL-5, 72 h) [M]","IC50 [6, 10] [M]","IC50 ([7]; Homo sapiens, OPM-2, 72 h) [M]","EC50 ([8]; Homo sapiens, SU-DHL10, 3 h) [µM]",IC50 [1] [M],"IC50 [2, 11] [M]",EC50 [3] [µM],IC50 [5] [M],"IC50 [6, 12] [M]",IC50 [7] [M],EC50 [8] [µM]
"Cc1nn(C)c2c1-c1cccc3c(CCCOc4cccc5ccccc45)c(C(=O)O)n(c13)CCCCN2Cc1ccccc1 [Example 002, (rac)-8-benzyl-9,11-dimethyl-1-[3-(1-naphthyloxy)propyl]-4,5,6,7,8,9-hexahydropyrazolo[4′,3′:4,5][1,6]diazecino[3,2,1-hi]indole-2-carboxylic Acid]",6.26e-06,3.18e-05,> 33,0.353,1.42e-05,2.12e-05,> 3.3e-05,22.4,–,–,–,–,–,–,–
"Cc1nn(C)c2c1-c1cccc3c(CCCOc4cccc5ccccc45)c(C(=O)O)n(c13)CCCN(c1ccccc1)C2 (racemic) [Example 1-97, (rac)-9,11-Dimethyl-1-[3-(1-naphthyloxy)propyl]-7-phenyl-4,5,6,7,8,9-hexahydropyrazolo[3′4′:78][1,5]diazecino[9,10,1-hi]indole-2-carboxylic Acid]",7.07e-06,> 3e-05,> 30,0.175,1.18e-05,> 3e-05,1.43e-05,> 30,–,–,–,–,–,–,–
"Cn1nc(COc2ccccc2)c2c1COCC=CCn1c(C(=O)O)c(CCCOc3cccc4ccccc34)c3cccc-2c31 (single isomer, unassigned) [Example 1-77, (E/Z)-1-methyl-7-[3-(naphthalen-1-yloxy)propyl]-3-(phenoxymethyl)-1,10,13,15-tetrahydropyrazolo[4′,3′:9,10][1,6]oxazacycloundecino[8,7,6-hi]indole-8-carboxylic Acid]",1.52e-05,> 3.3e-05,> 33,0.188,2.96e-05,> 3.3e-05,> 3.3e-05,> 33,–,–,–,–,–,–,–
"Cc1cc(OCCCc2c(C(=O)O)n3c4c(cccc24)-c2c(COc4ccccc4)nn(C)c2CN(C)CCC3)cc(C)c1Cl (single isomer, unassigned) [Example 1-85, 1-[3-(4-chloro-3,5-dimethylphenoxy)propyl]-7,9-dimethyl-11-(phenoxymethyl)-4,5,6,7,8,9-hexahydropyrazolo[3′,4′:7,8][1,5]diazecino[9,10,1-hi]indole-2-carboxylic Acid]",1.03e-05,> 3.3e-05,> 33,0.262,2.5e-05,> 3.3e-05,> 3.3e-05,> 33,–,–,–,–,–,–,–
"CN1CCCn2c(C(=O)O)c(CCCOc3cccc4ccccc34)c3cccc(c32)-c2c(COc3ccccc3)nn(C)c2C1 (racemic) [Example 1-81, (rac)-7,9-dimethyl-1-[3-(naphthalen-1-yloxy)propyl]-1-(phenoxymethyl)-4,5,6,7,8,9-hexahydropyrazolo[3′,4′:7,8][1,5]diazecino[9,10,1-hi]indole-2-carboxylic Acid]",2.78e-05,> 3.3e-05,> 33,0.0994,> 3.3e-05,> 3.3e-05,> 3.3e-05,> 33,–,–,–,–,–,–,–
"CN1CCCn2c(C(=O)O)c(CCCOc3cccc4ccccc34)c3cccc(c32)-c2c(COc3ccccc3)nn(C)c2C1 (single isomer, unassigned) [Example 1-83, 7,9-dimethyl-1-[3-(naphthalen-1-yloxy)propyl]-11-(phenoxymethyl)-4,5,6,7,8,9-hexahydropyrazolo[3′,4′:7,8][1,5]diazecino[9,10,1-hi]indole-2-carboxylic Acid]",–,–,–,0.24,–,–,–,–,1.12e-05,> 3.3e-05,> 33,2.06e-05,> 3.3e-05,> 3.3e-05,> 33
"CN1CCCn2c(C(=O)O)c(CCCOc3cccc4ccccc34)c3cccc(c32)-c2c(COc3ccc(N4CCN(S(=O)(=O)N(C)C)CC4)cc3)nn(C)c2C1 (single isomer, unassigned; enantiomer 2) [Example 1-16, 11-({4-[4-(dimethylsulfamoyl)piperazin-1-yl]phenoxy}methyl)-7,9-dimethyl-1-[3-(naphthalen-1-yloxy)propyl]-4,5,6,7,8,9-hexahydropyrazolo[3′,4′:7,8][1,5]diazecino[9,10,1-hi]indole-2-carboxylic Acid (Enantiomer 2)]",–,–,–,0.0848,–,–,–,–,5.63e-06,> 3.3e-05,> 33,8.21e-06,> 3.3e-05,1.15e-05,> 33
"Cn1nc(COc2ccccc2)c2c1COCC=CCn1c(C(=O)O)c(CCCOc3cccc4ccccc34)c3cccc-2c31 (single isomer, unassigned) [Example 1-78, (E/Z)-1-methyl-7-[3-(naphthalen-1-yloxy)propyl]-3-(phenoxymethyl)-1,10,13,15-tetrahydropyrazolo[4′,3′:9,10][1,6]oxazacycloundecino[8,7,6-hi]indole-8-carboxylic Acid]",–,–,–,0.905,–,–,–,–,1.08e-05,> 3.3e-05,> 33,1.79e-05,> 3.3e-05,3.06e-05,> 33
"Cc1cc(OCCCc2c(C(=O)O)n3c4c(cccc24)-c2c(COc4ccccc4)nn(C)c2CN(C)CCC3)cc(C)c1Cl (racemic) [Example 1-84, (rac)-1-[3-(4-chloro-3,5-dimethylphenoxy)propyl]-7,9-dimethyl-11-(phenoxymethyl)-4,5,6,7,8,9-hexahydropyrazolo[3′,4′:7,8][1,5]diazecino[9,10,1-hi]indole-2-carboxylic Acid]",8.37e-06,> 3.3e-05,> 33,0.11,1.18e-05,> 3.3e-05,> 3.3e-05,> 33,–,–,–,–,–,–,–
"Cc1nn(C)c2c1-c1cccc3c(CCCOc4cccc5ccccc45)c(C(=O)O)n(c13)CCCN(C)C2 (racemic) [Example 1-30, (rac)-7,9,11-trimethyl-1-[3-(naphthalen-1-yloxy)propyl]-4,5,6,7,8,9-hexahydropyrazolo[3′,4′:7,8][1,5]diazecino[9,10,1-hi]indole-2-carboxylic Acid]",1.36e-05,> 3.3e-05,15.6,0.00652,1.04e-05,> 3.3e-05,2.28e-05,30.1,–,–,–,–,–,–,–
"CN1CCCn2c(C(=O)O)c(CCCOc3cccc4ccccc34)c3cccc(c32)-c2c(COc3ccc(-n4ccccc4=O)cc3)nn(C)c2C1 (single isomer, unassigned; enantiomer 1) [Example 1-115, 7,9-Dimethyl-1-[3-(1-naphthyloxy)propyl]-1-{[4-(2-oxopyridin-1(2H)-yl)phenoxy]methyl}-4,5,6,7,8,9-hexahydropyrazolo[3′,4′:7,8][1,5]diazecino[9,10,1-hi]indole-2-carboxylic Acid (Enantiomer 1)]",1.24e-05,> 3.3e-05,> 33,0.0479,–,–,> 3.3e-05,32.9,–,–,–,2.13e-05,> 3.3e-05,–,–
"Cc1nn(C)c2c1-c1cccc3c(CCCOc4cccc5ccccc45)c(C(=O)O)n(c13)CCCCN2 [Example 003, (rac)-9,11-dimethyl-1-[3-(1-naphthyloxy)propyl]-4,5,6,7,8,9-hexahydropyrazolo[4′,3′:4,5][1,6]diazecino[3,2,1-hi]indole-2-carboxylic Acid]",1.54e-05,> 3.3e-05,> 33,0.0433,> 3.3e-05,> 3.3e-05,> 3.3e-05,29.1,–,–,–,–,–,–,–
"Cc1nn(C)c2c1-c1cccc3c(CCCOc4cccc5ccccc45)c(C(=O)O)n(c13)CC=CCN2Cc1ccccc1 (racemic) [Example 001, (rac)-(E/Z)-8-benzyl-9,11-dimethyl-1-[3-(1-naphthyloxy)propyl]-4,7,8,9-tetrahydropyrazolo[4′,3′:4,5][1,6]diazecino[3,2,1-hi]indole-2-carboxylic Acid]",9.57e-06,> 3.3e-05,> 33,1.01,> 3.3e-05,2.61e-05,> 3.3e-05,29.1,–,–,–,–,–,–,–

# Source: patent publication US10981932B2, “Macrocyclic indole derivatives” (Bayer Aktiengesellschaft, priority 2016, dated 2021)
